Test results: patent US7534778B2, “(20S)-1α-hydroxy-2-methylene-19-nor-bishomopregnacalciferol and its uses” (Wisconsin Alumni Research Foundation, priority 2001, dated 2009)
“Also recorded” adds a separate entry of the source. Like-named read-outs stand apart in the source and are kept apart here.

Experiments:
[1] = target: T1, full-length recombinant rat vitamin D receptor (Rattus norvegicus, UniProt P13053); assay: competition with [3H]-1,25(OH)2D3 for binding to vitamin D receptor; conditions: FIG. 2, read-out: Ki, competition with [3H]-1,25(OH)2D3 for VDR binding
T1 sequence (P13053 1-423): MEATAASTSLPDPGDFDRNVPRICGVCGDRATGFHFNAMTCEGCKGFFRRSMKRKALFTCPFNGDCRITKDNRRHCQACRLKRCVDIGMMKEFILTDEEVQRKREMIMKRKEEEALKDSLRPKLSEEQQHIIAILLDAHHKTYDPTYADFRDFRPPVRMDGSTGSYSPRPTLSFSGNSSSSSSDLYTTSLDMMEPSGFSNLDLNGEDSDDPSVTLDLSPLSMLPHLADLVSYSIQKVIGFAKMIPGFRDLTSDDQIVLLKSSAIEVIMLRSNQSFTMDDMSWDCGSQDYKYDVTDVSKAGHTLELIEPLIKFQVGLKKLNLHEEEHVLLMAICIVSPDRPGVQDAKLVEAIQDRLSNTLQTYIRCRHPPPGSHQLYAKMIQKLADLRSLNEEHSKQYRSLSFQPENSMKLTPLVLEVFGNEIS

[2] = system: HL-60 cells; assay: HL-60 cell differentiation into monocytes; type: cell-based; conditions: FIG. 3; for EC50: HL-60 cells, read-out: EC50, HL60 differentiation
Method: The differentiation of HL-60 promyelocytic into monocytes was determined as described by Ostrem et al (J. Biol. Chem. 262, 14164-14171, 1987).
VDR binding and HL60 cell differentiation.

[3] = system: calcium mobilization from bone; assay: bone calcium mobilization in vitamin D-deficient rats on low calcium diet; type: in vivo, rat; conditions: for bone calcium mobilization activity (serum calcium levels): low calcium diet (0.02%), overall / all dosages, FIG. 4
Method: (§1) Calcium mobilization from bone and intestinal calcium absorption in vitamin D-deficient animals. Using vitamin D-deficient rats on a low calcium diet (0.02%), the activities of these compounds in intestine and bone were tested.

[4] = system: intestinal calcium transport; assay: intestinal calcium transport, everted gut sac method, vitamin D-deficient rats; type: in vivo, rat; conditions: for intestinal calcium transport: everted gut sac, vitamin D-deficient rats
Method: as §1
Intestinal calcium transport was evaluated in the same groups of animals using the everted gut sac method (FIG. 5).

[5] = serum calcium response in vitamin D-sufficient normal female rats; type: in vivo, rat; conditions: for serum calcium (hypercalcemia): normal female rats, 5000 pmol/day for 7 days, oral or intraperitoneal, 4 hours after last dose
Method: Serum calcium response in vitamin D-sufficient animals on a normal calcium diet. […] The doses were administered to two separate groups of animals by either the oral or intraperitoneal route, and serum calcium levels were assessed 4 hours after the last dose.

[6] = system: porcine intestinal vitamin D receptor; assay: binding to porcine intestinal vitamin D receptor; conditions: FIG. 2

Row | SMILES | Ki [1] | EC50 ([2]; Homo sapiens) | calcemic activity from serum calcium ([5]; rats, chronic doses, FIG. 6) | binding to porcine receptor compared to standard 1,25-(OH)2D3 [6] | EC50 [2] | mobilization of bone calcium ([3]; 260 pmol/day for 7 days) | intestinal calcium transport activity ([4]; overall, dose not stated) | serum calcium (hypercalcemia) [5] | bone calcium mobilization activity (serum calcium levels) [3] | intestinal calcium transport ([4]; 260 pmol/day) | mobilization of bone calcium ([3]; 1300 pmol/day (5-fold)) | intestinal calcium transport ([4]; 260 or 1300 pmol/day) | intestinal calcium transport activity ([4]; doses higher than 1300 pmol/day) | potency on HL-60 differentiation relative to 1,25(OH)2D3 [2]
1 | C[C@H](CCCC(C)(C)O)[C@H]1CC[C@H]2/C(=C/C=C3C[C@@H](O)C[C@H](O)C3)CCC[C@]12C [1,25(OH)2 19-nor-D3, 1α,25-dihydroxy-19-nor-vitamin D3, reference compound] | 0.2 nM | – | – | – | 4 nM | did not result in mobilization of bone calcium | devoid of intestinal calcium transport activity | produced frank hypercalcemia | – | – | – | – | – | –
2 | C=C1/C(=C\C=C2/CCC[C@]3(C)[C@@H]([C@H](C)CCCC(C)(C)O)CC[C@@H]23)C[C@@H](O)C[C@@H]1O [1,25(OH)2D3, 1α,25-dihydroxyvitamin D3, reference compound] | – | – | – | – | 5 nM | – | – | – | increased serum calcium levels at all dosages | promotes a significant increase | – | – | – | –
3 | C=C1C(O)CC(=CC=C2CCCC3(C)C2CCC3C(C)C)CC1O (stereo not drawn) [2-MP, 1α-hydroxy-2-methylene-19-nor-homopregnacalciferol] | 0.3 nM | – | – | – | 6 nM | did not result in mobilization of bone calcium | – | – | little, if any, activity in mobilizing calcium from bone | – | without effect | calcium transport activity equivalent to 1,25(OH)2D3 | decreased this activity | –

The next lines start with results.

Row | Ki [1] | EC50 ([2]; Homo sapiens) | calcemic activity from serum calcium ([5]; rats, chronic doses, FIG. 6) | binding to porcine receptor compared to standard 1,25-(OH)2D3 [6] | SMILES | EC50 [2] | mobilization of bone calcium ([3]; 260 pmol/day for 7 days) | intestinal calcium transport activity ([4]; overall, dose not stated) | serum calcium (hypercalcemia) [5] | bone calcium mobilization activity (serum calcium levels) [3] | intestinal calcium transport ([4]; 260 pmol/day) | mobilization of bone calcium ([3]; 1300 pmol/day (5-fold)) | intestinal calcium transport ([4]; 260 or 1300 pmol/day) | intestinal calcium transport activity ([4]; doses higher than 1300 pmol/day) | potency on HL-60 differentiation relative to 1,25(OH)2D3 [2]
4 | 0.6 nM | 7 nM | very little calcemic activity | bound equally well | C=C1[C@H](O)CC(=C/C=C2\CCC[C@]3(C)[C@@H]([C@@H](C)CC)CC[C@@H]23)C[C@H]1O [2-MbisP, (20S)-1α-hydroxy-2-methylene-19-nor-bishomopregnacalciferol] | – | did not result in mobilization of bone calcium | very little activity | no increase in serum calcium | very little bone calcium mobilization activity; also recorded: little, if any, activity in mobilizing calcium from bone | – | without effect | do not promote intestinal calcium transport | – | almost as potent as 1,25(OH)2D3
5 | 0.3 nM | – | – | – | C=C1[C@H](O)CC(=C/C=C2\CCC[C@]3(C)[C@@H](CC)CC[C@@H]23)C[C@H]1O [2-Mpregna, 1α-hydroxy-2-methylene-19-nor-pregnacalciferol] | 17 nM | did not result in mobilization of bone calcium | – | – | little, if any, activity in mobilizing calcium from bone | – | without effect | do not promote intestinal calcium transport | – | –
